Like-named read-outs stand apart in the source and are kept apart here.
What was measured:
[1] = target: human muscarinic M3 receptor (Homo sapiens, UniProt P20309); test: Alphascreen Surefire phospho-ERK1/2 functional assay, M3; conditions: for EC50: pEC50 M3, CHO cells stably expressing human M3; for Emax: CHO
Method: CHO cells stably expressing the human muscarinic M1, M2, M3 or M4 receptor were plated (25K/well) onto 96-well tissue culture plates in MEM-alpha+10% dialysed FBS. Once adhered, cells were serum-starved overnight. Agonist stimulation was performed by the addition of 5 μL agonist to the cells for 5 min (37° C.). Media was removed and 50 μL of lysis buffer added. After 15 min, a 4 μL sample was transferred to 384-well plate and 7 μL of detection mixture added. Plates were incubated for 2 h with gentle agitation in the dark and then read on a PHERAstar plate reader.
pEC50 and Emax figures were calculated from the resulting data for each receptor subtype.

[2] = target: T1, human muscarinic M4 receptor (Homo sapiens, UniProt P08173); test: Alphascreen Surefire phospho-ERK1/2 functional assay, M4; type: cell-based; conditions: for EC50: phospho-ERK1/2, * = variable results; for Emax: CHO
T1 construct: expressed in transfected cells
T1 sequence (P08173 1-479): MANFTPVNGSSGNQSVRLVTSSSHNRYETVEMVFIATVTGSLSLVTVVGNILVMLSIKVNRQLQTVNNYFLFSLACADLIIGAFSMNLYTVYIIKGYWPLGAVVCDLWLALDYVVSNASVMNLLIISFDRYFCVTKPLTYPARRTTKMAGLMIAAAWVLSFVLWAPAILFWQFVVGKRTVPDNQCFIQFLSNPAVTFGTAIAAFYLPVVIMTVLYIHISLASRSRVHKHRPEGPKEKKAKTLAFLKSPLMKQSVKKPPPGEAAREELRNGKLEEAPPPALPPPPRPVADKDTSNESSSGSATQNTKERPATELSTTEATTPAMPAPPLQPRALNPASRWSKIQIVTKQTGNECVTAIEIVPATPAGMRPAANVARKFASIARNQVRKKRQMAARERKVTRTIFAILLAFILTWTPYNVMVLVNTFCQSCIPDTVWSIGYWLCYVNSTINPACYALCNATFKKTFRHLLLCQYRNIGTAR

[3] = target: T2, human muscarinic M2 receptor (Homo sapiens, UniProt P08172); test: Alphascreen Surefire phospho-ERK1/2 functional assay, M2; conditions: for Emax: CHO
T2 sequence (P08172 1-466): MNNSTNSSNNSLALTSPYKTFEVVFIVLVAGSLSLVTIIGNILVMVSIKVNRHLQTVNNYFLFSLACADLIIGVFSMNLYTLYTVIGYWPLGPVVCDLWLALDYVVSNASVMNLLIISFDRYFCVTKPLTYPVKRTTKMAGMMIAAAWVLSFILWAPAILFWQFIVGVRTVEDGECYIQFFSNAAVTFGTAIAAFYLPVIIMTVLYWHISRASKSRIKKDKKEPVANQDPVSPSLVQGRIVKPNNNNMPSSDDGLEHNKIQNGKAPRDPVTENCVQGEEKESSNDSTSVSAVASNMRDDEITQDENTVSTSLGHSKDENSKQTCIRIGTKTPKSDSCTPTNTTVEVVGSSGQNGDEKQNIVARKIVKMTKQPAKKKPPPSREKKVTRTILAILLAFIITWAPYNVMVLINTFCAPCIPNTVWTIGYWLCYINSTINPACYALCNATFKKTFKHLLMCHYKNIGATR

[4] = target: T3, human muscarinic M1 receptor (Homo sapiens, UniProt P11229); test: Alphascreen Surefire phospho-ERK1/2 functional assay, M1; type: cell-based; conditions: for EC50: phospho-ERK1/2, * = variable results; for Emax: CHO
T3 sequence (P11229 1-460): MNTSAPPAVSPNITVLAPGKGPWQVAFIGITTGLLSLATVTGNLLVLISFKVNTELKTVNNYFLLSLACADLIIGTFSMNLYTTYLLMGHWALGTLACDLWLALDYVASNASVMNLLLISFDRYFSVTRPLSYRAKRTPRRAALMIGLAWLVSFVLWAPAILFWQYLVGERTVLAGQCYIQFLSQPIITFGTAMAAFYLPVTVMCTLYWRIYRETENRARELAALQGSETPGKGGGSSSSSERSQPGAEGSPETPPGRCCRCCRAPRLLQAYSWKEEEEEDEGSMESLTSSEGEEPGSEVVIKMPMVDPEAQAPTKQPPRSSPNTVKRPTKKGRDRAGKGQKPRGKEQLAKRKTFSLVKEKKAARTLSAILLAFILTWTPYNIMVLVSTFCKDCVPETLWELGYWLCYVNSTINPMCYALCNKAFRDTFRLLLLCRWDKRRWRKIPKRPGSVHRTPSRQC

[5] = CHO cells stably expressing human M3, relative to ACh
[6] = phospho-ERK1/2, * = variable results
[7] = CHO cells stably expressing human M4, read-out: pEC50 M4 (converted)
[8] = CHO cells stably expressing human M4, relative to ACh
[9] = CHO cells stably expressing human M2, relative to ACh
[10] = CHO cells stably expressing human M1, read-out: pEC50 M1 (converted)
[11] = CHO cells stably expressing human M1, relative to ACh
[12] = read-out: % Emax cf. ACh, M3, CHO cells stably expressing human M3, relative to ACh
[13] = read-out: % Emax cf. ACh, M4, CHO cells stably expressing human M4, relative to ACh
[14] = read-out: % Emax cf. ACh, M2, CHO cells stably expressing human M2, relative to ACh
[15] = read-out: % Emax cf. ACh, M1, CHO cells stably expressing human M1, relative to ACh

Sequence of human muscarinic M3 receptor (P20309 whole entry): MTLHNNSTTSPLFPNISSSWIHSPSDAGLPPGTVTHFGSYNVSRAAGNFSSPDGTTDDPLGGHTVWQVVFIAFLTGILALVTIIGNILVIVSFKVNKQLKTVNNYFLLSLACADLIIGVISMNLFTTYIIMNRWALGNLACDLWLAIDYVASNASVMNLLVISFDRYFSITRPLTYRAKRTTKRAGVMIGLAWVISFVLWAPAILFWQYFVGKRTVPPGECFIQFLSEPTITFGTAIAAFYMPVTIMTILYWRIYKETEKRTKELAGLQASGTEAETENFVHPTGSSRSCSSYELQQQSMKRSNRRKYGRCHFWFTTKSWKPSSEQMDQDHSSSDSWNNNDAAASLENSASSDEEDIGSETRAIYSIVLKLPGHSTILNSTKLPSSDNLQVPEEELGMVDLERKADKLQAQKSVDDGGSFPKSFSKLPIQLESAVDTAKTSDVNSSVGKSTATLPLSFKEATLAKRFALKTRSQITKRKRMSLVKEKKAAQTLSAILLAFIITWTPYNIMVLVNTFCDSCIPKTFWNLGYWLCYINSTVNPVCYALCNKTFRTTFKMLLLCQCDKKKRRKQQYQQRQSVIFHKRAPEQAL

| Structure (SMILES) | % Emax cf. ACh, M3 [1, 5] | EC50 [1, 6] | EC50 [2, 7] | % Emax cf. ACh, M4 [2, 8] | EC50 [3] | % Emax cf. ACh, M2 [3, 9] | EC50 [4, 10] | % Emax cf. ACh, M1 [4, 11] | Emax [1, 12] | Emax [2, 13] | Emax [3, 14] | Emax [4, 15] | pEC50 M3 ([1]; CHO cells stably expressing human M3, phospho-ERK1/2, * = variable results) | pEC50 M2 ([3]; CHO cells stably expressing human M2, phospho-ERK1/2, * = variable results) | Emax ([1]; read-out: % Emax cf. ACh, M3) | Emax ([2]; read-out: % Emax cf. ACh, M4) | EC50 ([2]; pEC50 M4, CHO cells stably expressing human M4) | Emax ([3]; read-out: % Emax cf. ACh, M2) | Emax ([4]; read-out: % Emax cf. ACh, M1) | EC50 ([4]; pEC50 M1, CHO cells stably expressing human M1) |
| --- | --- | --- | --- | --- | --- | --- | --- | --- | --- | --- | --- | --- | --- | --- | --- | --- | --- | --- | --- | --- |
| CCOC(=O)N1CCC2(CC(N3CCC([C@@H]4CCCN4C(=O)NCc4ccccn4)CC3)C2)C1 (single isomer, unassigned) [2-54 Isomer 1] | 0% | > 20000 nM | 15.8 nM | 45% | > 20000 nM | 50% | > 20000 nM | 1% |  |  |  |  |  |  |  |  |  |  |  |  |
| COC(=O)N1CCC2(CC(N3CCC(c4nc(Cl)c(Cl)n4C)CC3)C2)C1 (single isomer, unassigned) [1-16 Isomer 2, methyl 2-[4-(4,5-dichloro-1-methyl-1H-imidazol-2-yl)piperidin-1-yl]-6-azaspiro[3.4]octane-6-carboxylate] |  | > 20000 nM | 158 nM |  | 7940 nM |  | 1580 nM |  | 1% | 82% | 34% | 80% |  |  |  |  |  |  |  |  |
| CCOC(=O)N1CCC2(CC(N3CCC(c4nc(Cl)c[nH]4)CC3)C2)C1 (single isomer, unassigned) [1-2 Isomer 2, ethyl 2-[4-(4-chloro-1H-imidazol-2-yl)piperidin-1-yl]-6-azaspiro[3.4]octane-6-carboxylate] |  | > 20000 nM | 25.1 nM |  | > 20000 nM |  | 251 nM |  | 4% | 100% | 6% | 93% |  |  |  |  |  |  |  |  |
| CCOC(=O)N1CCC2(CC(N3CCC([C@@H]4CCCN4C(=O)NC4(C)CCC4)CC3)C2)C1 (single isomer, unassigned) [2-35 Isomer 2] |  | > 20000 nM | 15.8 nM |  | > 20000 nM |  | 398 nM |  | 4% | 92% | 1% | 108% |  |  |  |  |  |  |  |  |
| CCOC(=O)N1CCC2(CC(N3CCC(c4nc(Cl)c(Cl)[nH]4)CC3)C2)C1 (single isomer, unassigned) [1-5 Isomer 2, ethyl 2-[4-(4,5-dichloro-1H-imidazol-2-yl)piperidin-1-yl]-6-azaspiro[3.4]octane-6-carboxylate] |  | > 20000 nM | 20 nM |  | > 20000 nM |  | 126 nM |  | 2% | 81% | 19% | 94% |  |  |  |  |  |  |  |  |
| CCOC(=O)N1CCC2(CC(N3CCC([C@@H]4CCCN4C(=O)N(C)OC)CC3)C2)C1 (single isomer, unassigned) [2-34 Isomer 2] | 39% |  | 251 nM | 58% |  | 3% | 3160 nM | 56% |  |  |  |  | < 4.7 | < 4.7 |  |  |  |  |  |  |
| CCOC(=O)N1CCC2(CC(N3CCC(C4CCCN4C(=O)OCC)CC3)C2)C1 (single isomer, unassigned) [2-14 Isomer 2, ethyl 2-{4-[1-(ethoxycarbonyl)pyrrolidin-2-yl]piperidin-1-yl}-6-azaspiro[3.4]octane-6-carboxylate] |  | > 20000 nM | 15.8 nM |  | > 20000 nM |  | > 20000 nM |  | 7% | 91% | 3% | 43% |  |  |  |  |  |  |  |  |
| CCOC(=O)N1CCC2(CC(N3CCC(C4CCCN4C(=O)C(F)(F)F)CC3)C2)C1 (single isomer, unassigned) [2-4 Isomer 2, ethyl 2-{4-[1-(trifluoroacetyl)pyrrolidin-2-yl]piperidin-1-yl}-6-azaspiro[3.4]octane-6-carboxylate] |  | > 20000 nM | 50.1 nM |  | > 20000 nM |  | 316 nM |  | 3% | 110% | 2% | 102% |  |  |  |  |  |  |  |  |
| CCOC(=O)N1CCC2(CC(N3CCC(c4ccnn4C)CC3)C2)C1 (single isomer, unassigned) [1-21 Isomer 2, ethyl 2-[4-(1-methyl-1H-pyrazol-5-yl)piperidin-1-yl]-6-azaspiro[3.4]octane-6-carboxylate] |  | > 20000 nM | 39.8 nM |  | > 20000 nM |  | > 20000 nM |  |  |  |  | 11% |  |  |  |  |  |  |  |  |
| CCOC(=O)N1CCC2(CC(N3CCC([C@@H]4CCCN4C(=S)CC)CC3)C2)C1 (single isomer, unassigned) [2-58 Isomer 2] |  | > 20000 nM | 31.6 nM |  | > 20000 nM |  | 1000 nM |  | 9% | 156% | 45% | 66% |  |  |  |  |  |  |  |  |
| CCOC(=O)N1CCC2(CC(N3CCC(OC)(c4ncc[nH]4)CC3)C2)C1 (single isomer, unassigned) [1-38 Isomer 2, ethyl 2-[4-(1H-imidazol-2-yl)-4-methoxypiperidin-1-yl]-6-azaspiro[3.4]octane-6-carboxylate] |  | > 20000 nM |  |  | > 20000 nM |  |  |  |  |  |  |  |  |  | 19% | 98% | 794 nM | 14% | 31% | 100 nM |
| CCOC(=O)N1CCC2(CC(N3CCC(c4cc(C)cnc4OC)CC3)C2)C1 (single isomer, unassigned) [3-12 Isomer 2, ethyl 2-[4-(2-methoxy-5-methylpyridin-3-yl)piperidin-1-yl]-6-azaspiro[3.4]octane-6-carboxylate] |  | > 20000 nM | 3.98 nM |  | > 20000 nM |  | 251 nM |  | 5% | 110% | 2% | 34% |  |  |  |  |  |  |  |  |
| CCOC(=O)N1CCC2(CC(N3CCC([C@@H]4CCCN4CCF)CC3)C2)C1 (single isomer, unassigned) [2-68 Isomer 2] |  | > 20000 nM | 63.1 nM |  | > 20000 nM |  | 1000 nM |  | 6% | 73% | 4% | 32% |  |  |  |  |  |  |  |  |
| COC(=O)N1CCC2(CC(N3CCC(n4cc(C)cn4)CC3)C2)C1 (single isomer, unassigned) [1-42 Isomer 2, methyl 2-[4-(4-methyl-1H-pyrazol-1-yl)piperidin-1-yl]-6-azaspiro[3.4]octane-6-carboxylate] |  | > 20000 nM | 6.31 nM |  | 316 nM |  | 39.8 nM |  | 16% | 76% | 27% | 123% |  |  |  |  |  |  |  |  |
| CCOC(=O)N1CCC2(CC(N3CCC([C@@H]4CCCN4C(=O)NCC(F)F)CC3)C2)C1 (single isomer, unassigned) [2-45 Isomer 2] |  | > 20000 nM | 5.01 nM |  | > 20000 nM |  | 251 nM |  | 5% | 111% | 5% | 67% |  |  |  |  |  |  |  |  |

Reference: patent publication US9926297B2, “Bicyclic AZA compounds as muscarinic M1 receptor and/or M4 receptor agonists” (Heptares Therapeutics Limited, priority 2014, dated 2018)
